# Source: ChEMBL document CHEMBL1909046, “DrugMatrix in vitro pharmacology data”
# pIC50, pKi: −log10 of the molar value.
# Legend:
# [1] = target: T1, C-C chemokine receptor type 4 (Homo sapiens, UniProt P51679); type: cell membranes, Chem-1, Membrane; conditions: for IC50: chem-1
# T1 sequence (P51679 whole entry): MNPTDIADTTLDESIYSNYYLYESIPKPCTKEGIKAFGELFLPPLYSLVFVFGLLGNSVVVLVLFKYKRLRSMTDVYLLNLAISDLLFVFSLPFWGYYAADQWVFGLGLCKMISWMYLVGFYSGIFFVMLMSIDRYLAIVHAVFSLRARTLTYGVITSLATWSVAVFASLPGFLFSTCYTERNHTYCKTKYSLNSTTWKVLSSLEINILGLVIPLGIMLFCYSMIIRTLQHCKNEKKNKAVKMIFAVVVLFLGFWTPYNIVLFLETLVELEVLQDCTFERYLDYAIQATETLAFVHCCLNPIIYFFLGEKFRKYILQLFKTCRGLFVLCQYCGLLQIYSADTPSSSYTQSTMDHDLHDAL
# [2] = target: T2, Neuropeptide Y receptor type 2 (Homo sapiens, UniProt P49146); type: cell membranes, Membrane; conditions: kan-ts
# T2 sequence (P49146 whole entry): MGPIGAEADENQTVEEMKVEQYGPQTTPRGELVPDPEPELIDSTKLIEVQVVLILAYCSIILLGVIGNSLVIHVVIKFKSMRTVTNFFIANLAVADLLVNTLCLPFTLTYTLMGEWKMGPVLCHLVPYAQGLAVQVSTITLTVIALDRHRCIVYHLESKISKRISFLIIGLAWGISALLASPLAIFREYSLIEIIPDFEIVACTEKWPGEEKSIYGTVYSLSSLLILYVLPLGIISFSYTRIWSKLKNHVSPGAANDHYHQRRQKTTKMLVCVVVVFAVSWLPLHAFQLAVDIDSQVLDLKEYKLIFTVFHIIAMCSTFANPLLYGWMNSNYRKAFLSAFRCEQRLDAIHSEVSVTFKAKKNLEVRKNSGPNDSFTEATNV
# [3] = target: T3, Angiotensin-converting enzyme (Oryctolagus cuniculus, UniProt P12822); test: biochemical; type: tissue-based, Lung;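 note: enzymatic inhibition of angiotensin-converting enzyme measured with FAPGG as the substrate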
# T3 sequence (P12822 whole entry): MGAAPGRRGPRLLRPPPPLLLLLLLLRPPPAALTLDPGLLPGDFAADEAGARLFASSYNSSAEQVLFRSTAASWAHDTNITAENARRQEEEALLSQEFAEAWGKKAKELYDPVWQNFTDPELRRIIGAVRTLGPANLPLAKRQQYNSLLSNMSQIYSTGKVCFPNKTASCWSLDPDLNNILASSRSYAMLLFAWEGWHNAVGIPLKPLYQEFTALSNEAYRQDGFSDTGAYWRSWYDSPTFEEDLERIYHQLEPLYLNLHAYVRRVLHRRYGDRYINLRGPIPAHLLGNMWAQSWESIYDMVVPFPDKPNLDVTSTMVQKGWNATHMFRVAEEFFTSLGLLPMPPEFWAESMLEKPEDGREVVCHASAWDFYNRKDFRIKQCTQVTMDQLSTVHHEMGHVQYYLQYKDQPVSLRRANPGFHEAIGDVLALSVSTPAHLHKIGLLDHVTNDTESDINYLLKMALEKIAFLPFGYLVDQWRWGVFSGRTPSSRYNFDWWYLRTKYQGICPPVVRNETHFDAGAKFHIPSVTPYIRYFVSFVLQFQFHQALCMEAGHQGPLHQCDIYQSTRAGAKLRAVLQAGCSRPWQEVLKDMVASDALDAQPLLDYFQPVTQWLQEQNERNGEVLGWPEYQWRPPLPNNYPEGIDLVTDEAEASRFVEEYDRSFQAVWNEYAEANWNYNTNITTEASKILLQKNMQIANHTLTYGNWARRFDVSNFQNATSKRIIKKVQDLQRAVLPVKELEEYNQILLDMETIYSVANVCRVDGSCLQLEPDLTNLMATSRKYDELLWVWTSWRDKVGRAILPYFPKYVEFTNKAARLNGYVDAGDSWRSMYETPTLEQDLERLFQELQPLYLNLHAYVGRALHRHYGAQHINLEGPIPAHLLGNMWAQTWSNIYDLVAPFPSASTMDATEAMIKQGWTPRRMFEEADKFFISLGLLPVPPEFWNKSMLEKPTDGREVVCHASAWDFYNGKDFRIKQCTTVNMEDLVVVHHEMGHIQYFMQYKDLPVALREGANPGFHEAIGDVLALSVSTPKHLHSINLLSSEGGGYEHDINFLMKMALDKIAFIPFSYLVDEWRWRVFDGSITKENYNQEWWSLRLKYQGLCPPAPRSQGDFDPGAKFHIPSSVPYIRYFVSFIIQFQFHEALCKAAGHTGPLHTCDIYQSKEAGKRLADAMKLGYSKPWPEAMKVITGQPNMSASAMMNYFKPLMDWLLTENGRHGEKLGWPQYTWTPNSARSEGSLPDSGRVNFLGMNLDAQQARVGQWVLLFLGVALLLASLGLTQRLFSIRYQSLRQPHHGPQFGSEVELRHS
# [4] = target: T4, Neuropeptide Y receptor type 1 (Homo sapiens, UniProt P25929); type: cell membranes, Membrane; conditions: sk-n-mc
# T4 sequence (P25929 whole entry): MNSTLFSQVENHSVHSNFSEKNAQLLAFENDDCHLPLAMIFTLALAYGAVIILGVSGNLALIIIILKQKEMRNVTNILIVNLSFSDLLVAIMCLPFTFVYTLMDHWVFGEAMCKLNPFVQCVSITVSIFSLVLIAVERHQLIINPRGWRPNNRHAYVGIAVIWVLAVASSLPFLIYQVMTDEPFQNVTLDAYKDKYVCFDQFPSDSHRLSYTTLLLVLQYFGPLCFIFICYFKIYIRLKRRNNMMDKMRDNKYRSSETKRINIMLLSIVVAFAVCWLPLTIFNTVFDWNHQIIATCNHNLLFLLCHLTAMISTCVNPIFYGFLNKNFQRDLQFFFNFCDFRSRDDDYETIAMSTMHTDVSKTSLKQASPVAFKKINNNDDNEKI
# [5] = target: Vasopressin V1a receptor (Homo sapiens, UniProt P37288); type: cell membranes, Membrane; conditions: hek293
# [6] = target: T5, Calcitonin receptor (Homo sapiens, UniProt P30988); type: cell membranes, Membrane; conditions: t47d
# T5 sequence (P30988 whole entry): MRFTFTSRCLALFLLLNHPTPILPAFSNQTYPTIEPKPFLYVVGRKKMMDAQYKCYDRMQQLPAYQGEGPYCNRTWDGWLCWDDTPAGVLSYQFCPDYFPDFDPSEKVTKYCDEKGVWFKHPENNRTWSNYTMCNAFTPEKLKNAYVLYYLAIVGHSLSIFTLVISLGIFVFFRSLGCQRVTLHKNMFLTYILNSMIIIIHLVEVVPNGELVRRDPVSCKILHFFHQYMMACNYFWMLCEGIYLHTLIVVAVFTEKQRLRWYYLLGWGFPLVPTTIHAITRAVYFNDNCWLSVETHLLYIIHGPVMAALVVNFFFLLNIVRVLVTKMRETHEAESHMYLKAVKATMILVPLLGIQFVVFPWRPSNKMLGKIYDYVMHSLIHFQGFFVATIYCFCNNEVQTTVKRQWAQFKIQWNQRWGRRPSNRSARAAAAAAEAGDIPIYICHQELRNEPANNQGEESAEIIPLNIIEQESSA
# Note: in other assays of this panel Not Active means under 50% inhibition at 10 µM.
# Vasopressin V1a receptor, sequence (P37288 whole entry): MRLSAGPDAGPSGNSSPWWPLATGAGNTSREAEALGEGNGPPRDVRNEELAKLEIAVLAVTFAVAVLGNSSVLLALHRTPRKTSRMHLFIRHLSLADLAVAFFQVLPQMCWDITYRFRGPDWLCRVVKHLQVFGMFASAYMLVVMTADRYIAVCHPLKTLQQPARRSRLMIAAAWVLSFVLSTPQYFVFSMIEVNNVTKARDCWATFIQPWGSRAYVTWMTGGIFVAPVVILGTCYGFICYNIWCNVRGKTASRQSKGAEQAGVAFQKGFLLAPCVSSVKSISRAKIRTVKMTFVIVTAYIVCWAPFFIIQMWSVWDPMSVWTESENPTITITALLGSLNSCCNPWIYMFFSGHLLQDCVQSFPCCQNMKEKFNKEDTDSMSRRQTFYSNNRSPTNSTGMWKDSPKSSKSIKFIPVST
SMILES,IC50 [1],IC50 [2],IC50 [3],IC50 [4],IC50 [5],IC50 [6],pIC50 ([1]; read-out: IC50),pKi ([1]; read-out: Ki)
CC#C[C@]1(O)CC[C@H]2[C@@H]3CCC4=CC(=O)CCC4=C3[C@@H](c3ccc(N(C)C)cc3)C[C@@]21C [MIFEPRISTONE],Not Active,Not Active,Not Active,Not Active,Not Active,Not Active,–,–
CC[C@@]1(O)C(=O)OCc2c1cc1n(c2=O)Cc2cc3c(CN(C)C)c(O)ccc3nc2-1 [TOPOTECAN],Not Active,Not Active,Not Active,Not Active,Not Active,Not Active,–,–
Nc1nc(N)c2nc(-c3ccccc3)c(N)nc2n1,Not Active,Not Active,Not Active,Not Active,Not Active,Not Active,–,–
Cc1cc2c(s1)Nc1ccccc1N=C2N1CCN(C)CC1 [OLANZAPINE],Not Active,Not Active,Not Active,Not Active,Not Active,Not Active,–,–
CC[C@H](C)[C@@H](CO[C@@H](Cc1ccccc1)C(=O)N[C@@H](CCS(C)(=O)=O)C(=O)OC(C)C)NC[C@@H](N)CS,Not Active,Not Active,Not Active,Not Active,Not Active,Not Active,–,–
CO[C@@]12[C@H](COC(N)=O)C3=C(C(=O)C(C)=C(N)C3=O)N1C[C@@H]1N[C@@H]12 [MITOMYCIN],Not Active,Not Active,Not Active,Not Active,Not Active,Not Active,–,–
CCOC(=O)C1=C(C)NC(C)=C(C(=O)OCC)C1c1ccccc1/C=C/C(=O)OC(C)(C)C [LACIDIPINE],Not Active,Not Active,Not Active,Not Active,Not Active,Not Active,–,–
Cc1cn([C@H]2C=C[C@@H](CO)O2)c(=O)[nH]c1=O [STAVUDINE],Not Active,Not Active,Not Active,Not Active,Not Active,Not Active,–,–
C#C[C@]1(O)CC[C@H]2[C@@H]3[C@H](C)CC4=C(CCC(=O)C4)[C@H]3CC[C@@]21C [TIBOLONE],Not Active,Not Active,Not Active,Not Active,Not Active,Not Active,–,–
CC(O)C(=O)O (centres undefined) [LACTIC ACID],Not Active,Not Active,Not Active,Not Active,Not Active,Not Active,–,–
O=C(O)c1cc(/N=N/c2ccc(S(=O)(=O)Nc3ccccn3)cc2)ccc1O [SULFASALAZINE],Not Active,Not Active,Not Active,Not Active,Not Active,Not Active,–,–
CCN(CC)C(=S)SSC(=S)N(CC)CC,–,Not Active,Not Active,Not Active,Not Active,Not Active,5.08,5.36
CNCCCC12CCC(c3ccccc31)c1ccccc12 [MAPROTILINE],Not Active,Not Active,Not Active,Not Active,Not Active,Not Active,–,–
Cc1ccc(Cl)c(Nc2ccccc2C(=O)O)c1Cl [MECLOFENAMIC ACID],Not Active,Not Active,Not Active,Not Active,Not Active,Not Active,–,–
CC(C)(C)NC[C@H](O)COc1cccc2c1CCCC2=O [LEVOBUNOLOL],Not Active,Not Active,Not Active,Not Active,Not Active,Not Active,–,–
Cc1cccc(C)c1NC(=O)C(C)N (centres undefined) [TOCAINIDE],Not Active,Not Active,Not Active,Not Active,Not Active,Not Active,–,–
CCOc1cc(N)c(Cl)cc1C(=O)NCC1CN(Cc2ccc(F)cc2)CCO1 (centres undefined) [MOSAPRIDE],Not Active,Not Active,Not Active,Not Active,Not Active,Not Active,–,–
Cc1cnc(NC(=O)C2=C(O)c3ccccc3S(=O)(=O)N2C)s1 [MELOXICAM],Not Active,Not Active,Not Active,Not Active,Not Active,Not Active,–,–
O=C1CC[C@@]2(O)[C@H]3Cc4ccc(O)c5c4[C@@]2(CCN3CC2CC2)[C@H]1O5 [NALTREXONE],Not Active,Not Active,Not Active,Not Active,Not Active,Not Active,–,–
O=C(c1ccccc1)c1ccc2n1CCC2C(=O)O (centres undefined) [KETOROLAC],Not Active,Not Active,Not Active,Not Active,Not Active,Not Active,–,–
Oc1ccc(/C=C/c2cc(O)cc(O)c2)cc1 [RESVERATROL],Not Active,Not Active,Not Active,Not Active,Not Active,Not Active,–,–
CN1C(=O)OC(C)(C)C1=O [TRIMETHADIONE],Not Active,Not Active,Not Active,Not Active,Not Active,Not Active,–,–
Cc1[nH]c(=O)c(C#N)cc1-c1ccncc1 [MILRINONE],Not Active,Not Active,Not Active,Not Active,Not Active,Not Active,–,–
